Measured values from patent US10328018B2, “Cosmetic use of the essential oil of Laserpitium siler L. against the signs of aging of the skin and as a skin antioxidant” (L'OREAL, priority 2012, dated 2019).
Marks after values point to notes of the source that are not given here.

Key:
[1] = test system: type I procollagen; test: Synthesis/secretion of type I procollagen by ELISA (CICP) on NHDF dermal fibroblasts; format: cell-based, human; conditions: 100 μM, 72 h, control without treatment=100%
Method: The study consists in evaluating, on NHDF (Normal Human Dermal Fibroblasts) dermal fibroblasts, the effects of the essential oil of […]. of example 1, at two concentrations, over the following parameters: • the synthesis of type I procollagen by ELISA (CICP, Cross-linked C-telopeptides of Type I collagen) after 72 h of contact, and • the abundance of MMP-1 secreted in the culture medium after 72 h of contact. The study was carried out on NHDF human dermal fibroblasts (ATCC, CRL-2522, origin: foreskin) cultured in monolayer in a medium of DMEM (Invitrogen, 31885-049) and antibiotics (penicillin/streptomycin, Invitrogen, 15140-122), and cultured in serum-free medium for studies on type I collagen and on MMP-1. The fibroblasts were seeded in 24-well plates, 24 h before the treatment with the test and reference elements. For the measurement of the synthesis/secretion of type I procollagen and for the quantification of MMP-1, the test elements and also the reference elements (TGF-β1 (Transforming Growth Factor-β1) for MMP-1 and vitamin C for CICP) were applied for 72 h in the absence of serum. The supernatants of the cultures were harvested after 72 h of treatment with the active agents and the reference element (in this case, vitamin C at 1000 μM). These were frozen at -20° C. until the day of the analysis. […]

[2] = test system: MMP-1; test: Abundance of MMP-1 secreted in culture medium of NHDF dermal fibroblasts (pro-MMP-1 ELISA); format: cell-based, human; conditions: 2.5 ng/ml, 72 h, control without treatment=100%
Method: The study consists in evaluating, on NHDF (Normal Human Dermal Fibroblasts) dermal fibroblasts, the effects of the essential oil of Laserpitium Siler L. of example 1, at two concentrations, over the following parameters: • the synthesis of type I procollagen by ELISA (CICP, Cross-linked C-telopeptides of Type I collagen) after 72 h of contact, and • the abundance of MMP-1 secreted in the culture medium after 72 h of contact.
The study was carried out on NHDF human dermal fibroblasts (ATCC, CRL-2522, origin: foreskin) cultured in monolayer in a medium of DMEM (Invitrogen, 31885-049) and antibiotics (penicillin/streptomycin, Invitrogen, 15140-122), and cultured in serum-free medium for studies on type I collagen and on MMP-1.
The fibroblasts were seeded in 24-well plates, 24 h before the treatment with the test and reference elements.
For the measurement of the synthesis/secretion of type I procollagen and for the quantification of MMP-1, the test elements and also the reference elements (TGF-β1 (Transforming Growth Factor-β1) for MMP-1 and vitamin C for CICP) were applied for 72 h in the absence of serum. […]
The quantification of MMP-1 was carried out with a specific kit (Human pro-MMP-1 Quantikine ELISA, R&D System), according to the instructions given by the supplier.

[3] = test system: Collagen IV; test: Production of collagen IV by normal human keratinocytes (in situ immunolabeling, image analysis); format: cell-based; conditions: TGF-β at 10 ng/ml, NHEK, 72 hours
Method: The purpose of this study was to evaluate the effects of the essential oil of Laserpitium Siler L. according to example 1 on the dermo-epidermal junction marker (Coll. IV) modulated during aging by immunohistochemistry techniques.
• Culture medium: Keratinocyte-SFM supplemented with: • Epidermal Growth Factor (EGF) 0.25 ng/ml • Pituitary extract (PE) 25 μg/ml • Gentamicin 25 μg/ml • Test medium: Keratinocyte-SFM supplemented with: • Gentamicin 25 μg/ml
Normal human keratinocytes (NHEK—Ref: K341) were seeded and cultured in a culture medium (Keratinocyte-SFM for 24 hours). The culture medium was replaced by the test medium containing, or not containing (control), the test compounds or reference compounds (TGF-β at 10 ng/ml), then the cells were incubated for 72 hours at 37° C., 5% CO2.
After incubation, the culture medium was removed and the cells were rinsed, fixed and permeabilized.
The cells were then labeled with the primary antibody targeted against the protein of interest (Collagen IV).
The relative quantification was carried out by image analysis after in situ immuno labeling.
The image acquisition was carried out with a high-resolution imaging system: INCell Analyser™ 1000.

## O=C1O[C@H]([C@@H](O)CO)C(O)=C1O [Vitamin C]
[1]
  CICP (protein abundance): 160%***

## TGF-β1: Transforming Growth Factor-β1, reference element for MMP-1
[2]
  MMP-1 (protein abundance): 47%***

## TGF-β: positive control / reference compound at 10 ng/ml in the collagen IV test
[3]
  increase in expression of collagen IV compared to the control: 594%
